Structures can show the parent of a compound that is named as a salt. Starred links: 1 amine or outer side, 2 acyl side, 3 side chain; linkers in the order of their positions; H or OH if unused. Non-standard residues stand in square brackets, D forms with d. Residues, ends and D or L forms follow the SMILES beside them. *: point of attachment. F4(amBAlaDOTALu) = lutetium complex of (S)-2,2',2''-(10-(2-((3-((4-(2-amino-2-carboxyethyl)benzyl)amino)-3-oxopropyl)amino)-2-oxoethyl)-1,4,7,10-tetraazacyclododecane-1,4,7-triyl)triacetic acid (Phe with 4-aminomethyl-βAla-DOTA-Lu), O=C([O-])CN1CCN(CC(=O)[O-])CCN(CC(=O)NCCC(=O)NCc2ccc(C[C@H](N[*:1])C(=O)[*:2])cc2)CCN(CC(=O)[O-])CC1.[Lu+3]; F(4OEtNHDOTA-Lu) = lutetium complex of (S)-2,2',2''-(10-(2-((2-(4-(2-amino-2-carboxyethyl)phenoxy)ethyl)amino)-2-oxoethyl)-1,4,7,10-tetraazacyclododecane-1,4,7-triyl)triacetic acid (Phe with 4-O-ethylamino-DOTA-Lu), O=C([O-])CN1CCN(CC(=O)[O-])CCN(CC(=O)NCCOc2ccc(C[C@H](N[*:1])C(=O)[*:2])cc2)CCN(CC(=O)[O-])CC1.[Lu+3]; F(4amPEG2NH-NOTA-Ga) = gallium complex of (S)-2,2'-(7-(1-(4-(2-amino-2-carboxyethyl)phenyl)-3,12-dioxo-5,8-dioxa-2,11-diazatridecan-13-yl)-1,4,7-triazonane-1,4-diyl)diacetic acid (Phe with 4-aminomethyl-PEG2-NOTA-Ga), O=C([O-])CN1CCN(CC(=O)[O-])CCN(CC(=O)NCCOCCOCC(=O)NCc2ccc(C[C@H](N[*:1])C(=O)[*:2])cc2)CC1.[Ga+3]; F(4amPEG2NHAAZTA-Lu) = lutetium complex of (S)-2,2'-((6-(1-(4-(2-amino-2-carboxyethyl)phenyl)-3,12-dioxo-5,8-dioxa-2,11-diazahexadecan-16-yl)-1,4-bis(carboxymethyl)-1,4-diazepan-6-yl)azanediyl)diacetic acid (Phe with 4-aminomethyl-PEG2-AAZTA-L; K(COpipzaa) = N6-(4-(carboxymethyl)piperazine-1-carbonyl)-L-lysine, O=C(NCCCC[C@H](N[*:1])C(=O)[*:2])N1CCN(CC(=O)[*:3])CC1; COpipzaa = 4-(carboxymethyl)piperazine-1-carbonyl, O=C(O)CN1CCN(C(=O)*)CC1; F(4amPEG2NHRDOTAGA-Ga) = Phe with 4-aminomethyl-PEG2-NH-DOTAGA, Ga complex; hS(Pr) = O-propyl-L-homoserine, CCCOCC[C@H](N[*:1])C(=O)[*:2]; Phe(4-CH2NH2) = NCc1ccc(C[C@H](N)C(=O)O)cc1; 3Pal(6-NH2) = Nc1ccc(C[C@H](N)C(=O)O)cn1; AEF = NCCOc1ccc(C[C@H](N)C(=O)O)cc1; NMeCha = CN[C@@H](CC1CCCCC1)C(=O)O; NMeF = CN[C@@H](Cc1ccccc1)C(=O)O; dHyp = O=C(O)[C@H]1C[C@H](O)CN1; Ahp(2) = CCCCC[C@H](N)C(=O)O; hSer = N[C@@H](CCO)C(=O)O; AEEA = NCCOCCOCC(=O)O; Sar = CNCC(=O)O
Assays:
[1] = biological target: T1, mouse FAP (Mus musculus, UniProt P97321); test: Enzymatic FAP competition assay (Z-Gly-Pro-AMC fluorescence), mouse FAP; format: biochemical; settings: read-out: m. FAP, Enz., IC50
T1 construct: biotinylated His, Avi tag, mouse FAP (26-761, FAP-M82Q5); His; Avi tag (biotinylated); purchased AcroBiosystems FAP-M82Q5
T1 sequence (P97321 26-761): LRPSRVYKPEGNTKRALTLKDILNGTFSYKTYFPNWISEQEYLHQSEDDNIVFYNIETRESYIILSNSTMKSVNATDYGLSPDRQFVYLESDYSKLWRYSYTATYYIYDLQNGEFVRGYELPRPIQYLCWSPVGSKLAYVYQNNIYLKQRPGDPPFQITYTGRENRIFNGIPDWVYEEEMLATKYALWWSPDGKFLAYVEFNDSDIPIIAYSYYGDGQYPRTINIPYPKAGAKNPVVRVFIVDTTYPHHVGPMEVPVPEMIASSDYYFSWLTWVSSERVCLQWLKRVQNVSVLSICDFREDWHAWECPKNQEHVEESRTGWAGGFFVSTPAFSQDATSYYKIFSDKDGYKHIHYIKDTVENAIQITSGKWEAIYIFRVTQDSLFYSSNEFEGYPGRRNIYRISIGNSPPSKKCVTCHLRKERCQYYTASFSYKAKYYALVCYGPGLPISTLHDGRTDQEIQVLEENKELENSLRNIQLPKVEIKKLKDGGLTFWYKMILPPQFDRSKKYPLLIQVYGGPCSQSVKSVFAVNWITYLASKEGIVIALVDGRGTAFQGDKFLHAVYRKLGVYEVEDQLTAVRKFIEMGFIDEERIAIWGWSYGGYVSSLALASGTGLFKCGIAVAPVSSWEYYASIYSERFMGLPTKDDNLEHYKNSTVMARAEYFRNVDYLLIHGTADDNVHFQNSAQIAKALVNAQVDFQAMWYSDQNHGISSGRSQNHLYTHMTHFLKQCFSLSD
How it was run: (§1)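 Biotinylated His/Avi-tagged FAP ectodomain (human 26-760, mouse 26-761) at 0.01 nM, preincubated 24 h with peptides (14 concentrations, up to 1 μM) in pH 7.5 phosphate, 150 mM NaCl, 0.05% Tween20, 1% DMSO. Then 50 μM Z-Gly-Pro-AMC, 4 h at 22-24° C; AMC fluorescence (380/460 nm) gave IC50 from duplicate points.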

[2] = biological target: T2, human FAP (Homo sapiens, UniProt Q12884); test: Enzymatic FAP competition assay (Z-Gly-Pro-AMC fluorescence), human FAP; format: biochemical; settings: read-out: h. FAP, Enz., IC50
T2 construct: the biotinylated His, Avi tag, human FAP (26-760, FAP-H82Q6); His; Avi tag (biotinylated); purchased AcroBiosystems FAP-H82Q6
T2 sequence (Q12884 26-760): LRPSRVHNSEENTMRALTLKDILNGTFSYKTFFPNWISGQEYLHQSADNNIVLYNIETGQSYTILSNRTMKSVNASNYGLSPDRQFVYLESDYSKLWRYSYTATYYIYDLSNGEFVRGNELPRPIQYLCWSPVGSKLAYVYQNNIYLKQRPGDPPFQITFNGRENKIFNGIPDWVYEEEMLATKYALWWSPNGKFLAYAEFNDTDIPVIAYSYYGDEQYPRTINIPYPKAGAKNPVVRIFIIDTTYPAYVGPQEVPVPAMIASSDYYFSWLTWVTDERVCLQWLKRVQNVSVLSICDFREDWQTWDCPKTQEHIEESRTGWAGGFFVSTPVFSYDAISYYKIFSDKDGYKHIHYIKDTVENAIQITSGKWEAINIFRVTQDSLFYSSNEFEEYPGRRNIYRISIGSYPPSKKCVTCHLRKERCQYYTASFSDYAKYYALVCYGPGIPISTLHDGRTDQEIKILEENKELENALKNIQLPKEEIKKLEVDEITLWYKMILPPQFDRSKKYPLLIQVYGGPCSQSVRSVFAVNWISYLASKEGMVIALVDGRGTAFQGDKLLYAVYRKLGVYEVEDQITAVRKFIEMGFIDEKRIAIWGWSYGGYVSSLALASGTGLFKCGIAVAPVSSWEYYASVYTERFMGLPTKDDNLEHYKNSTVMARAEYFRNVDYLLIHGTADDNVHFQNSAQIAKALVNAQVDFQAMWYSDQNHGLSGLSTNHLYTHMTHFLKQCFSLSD
How it was run: as §1

[3] = biological target: T1, mouse FAP; test: Surface plasmon resonance (SPR) for peptide affinity, mouse FAP; format: binding
How it was run: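 Biotinylated His/Avi-tagged FAP ectodomains (human 26-760, mouse 26-761) captured or immobilized on Biacore sensor chips; peptides run at 25 °C in HBS-EP+ pH 7.6 with 2% DMSO, single-cycle kinetics, 8 concentrations. KD from 1:1 binding-model fit of sensorgrams.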

Molecule	IC50 [1]	IC50 [2]	Kd [3]
CCCCC[C@@H]1NC(=O)[C@H](Cc2ccc(O)cc2)NC(=O)[C@H](Cc2ccccc2)N(C)C(=O)CNC(=O)CN(C)C(=O)[C@H]2CCCN2C(=O)[C@H](CC(=O)O)NC(=O)[C@H](Cc2ccc(O)cc2)NC(=O)CNC(=O)[C@H](Cc2c[nH]c3ccccc23)NC1=O [Example A73, 2-((9S,12S,15S,18S,24S,27S,32aR)-18-((1H-indol-3-yl)methyl)-9-benzyl-12,24-bis(4-hydroxybenzyl)-2,8-dimethyl-1,4,7,10,13,16,19,22,25,28-decaoxo-15-pentyldotriacontahydropyrrolo[1,2-a][1,4,7,10,13,16,19,22,25,28]decaazacyclotriacontin-27-yl)acetic acid] (cyclo([Ahp(2)]WGYD[dP][Sar]G[NMeF]Y))	0.101 nM	0.028 nM	0.081 nM
Gly-Gly-NMePhe-F(4amPEG2NHRDOTAGA-Ga)-hS(Pr)-Trp-Gly-K(COpipzaa)-AsI-D-Pro (cyclo(GG[NMeF][F(4amPEG2NHRDOTAGA-Ga)][hS(Pr)]WGK(COpipzaa)D[dP]); also: Ga complex) [Example C39]	0.051 nM	0.015 nM	< 0.024 nM
Gly-Gly-NMePhe-F(4amPEG2NHAAZTA-Lu)-hS(Pr)-Trp-Gly-K(COpipzaa)-Asp-D-Pro (cyclo(GG[NMeF][F(4amPEG2NHAAZTA-Lu)][hS(Pr)]WGK(COpipzaa)D[dP]); also: Lu complex) [Example C32]	0.044 nM	0.017 nM	< 0.027 nM
CCCCC[C@@H]1NC(=O)[C@H](Cc2ccc(O)cc2)NC(=O)[C@H](Cc2ccccc2)N(C)C(=O)CNC(=O)[C@H](CCCCN)NC(=O)[C@H]2C[C@H](O)CN2C(=O)[C@H](CC(=O)O)NC(=O)[C@H](Cc2ccc(O)cc2)NC(=O)CNC(=O)[C@H](Cc2c[nH]c3ccccc23)NC1=O [Example A41, Lys-Gly-NMePhe-Tyr-Ahp-Trp-Gly-Tyr-Asp-D-trans4hyp, TFA salt] (cyclo([Ahp(2)]WGYD[dHyp]KG[NMeF]Y))	5.3 nM	2.2 nM	12 nM
Glu-Gly-NMe3PyA-F(4amPEG2NHDOTA-Lu)-hS(Pr)-W7N-Gly-K(COpipzaa)-Asp-D-Pro [Example C7]	0.034 nM	0.014 nM	< 0.068 nM
CCCCC[C@@H]1NC(=O)[C@H](Cc2ccc(OCCN)cc2)NC(=O)[C@H](Cc2ccccc2)N(C)C(=O)CNC(=O)CNC(=O)[C@H]2CCCN2C(=O)[C@H](CC(=O)O)NC(=O)[C@H](Cc2ccc(N)nc2)NC(=O)CNC(=O)[C@H](Cc2c[nH]c3ccccc23)NC1=O [Example A45, Gly-Gly-NMePhe-F(4OEtNH2)-Ahp-Trp-Gly-3PyA(6NH2)-Asp-D-Pro, TFA salt] (cyclo([AEF][Ahp(2)]WG[3Pal(6-NH2)]D[dP]GG[NMeF]))	0.93 nM	0.192 nM	0.54 nM
CCCCC[C@@H]1NC(=O)[C@H](Cc2ccc(O)cc2)NC(=O)[C@H](Cc2ccccc2)N(C)C(=O)CNC(=O)CNC(=O)[C@H]2CCCN2C(=O)[C@H](CCO)NC(=O)[C@H](Cc2ccc(O)cc2)NC(=O)CNC(=O)[C@H](Cc2c[nH]c3ccccc23)NC1=O [Example A57, Gly-Gly-NMePhe-Tyr-Ahp-Trp-Gly-Tyr-hSer-D-Pro] (cyclo([Ahp(2)]WGY[hSer][dP]GG[NMeF]Y))	25 nM	6.6 nM	19 nM
Gly-Gly-NMePhe-F4(amBAlaDOTALu)-Ahp-Trp-Gly-Tyr-Asp-D-Pro (cyclo(GG[NMeF][F4(amBAlaDOTALu)][Ahp(2)]WGYD[dP]); also: Lu complex) [Example C10]	0.024 nM	0.01 nM	0.033 nM
CCCCC[C@@H]1NC(=O)[C@H](Cc2ccc(O)cc2)NC(=O)[C@H](CC2CCCCC2)N(C)C(=O)CNC(=O)[C@H](CCCCN)NC(=O)[C@H]2CCCN2C(=O)[C@H](CC(=O)O)NC(=O)[C@H](Cc2ccc(O)cc2)NC(=O)CNC(=O)[C@H](Cc2c[nH]c3ccccc23)NC1=O [Example A43, Lys-Gly-NMecHexA-Tyr-Ahp-Trp-Gly-Tyr-Asp-D-Pro, TFA salt] (cyclo([Ahp(2)]WGYD[dP]KG[NMeCha]Y))	0.189 nM	0.069 nM	0.188 nM
Gly-Gly-NMePhe-F(4amPEG2NH-NOTA-Ga)-hS(Pr)-Trp-Gly-K(COpipzaa)-Asp-D-Pro (cyclo(GG[NMeF][F(4amPEG2NH-NOTA-Ga)][hS(Pr)]WGK(COpipzaa)D[dP]); also: Ga complex) [Example C41]	0.031 nM	0.013 nM	< 0.043 nM
CCCCC[C@@H]1NC(=O)[C@H](Cc2ccc(CNC(=O)COCCOCCN)cc2)NC(=O)[C@H](Cc2ccccc2)N(C)C(=O)CNC(=O)CNC(=O)[C@H]2CCCN2C(=O)[C@H](CC(=O)O)NC(=O)[C@H](Cc2ccc(O)cc2)NC(=O)CNC(=O)[C@H](Cc2c[nH]c3ccccc23)NC1=O [Example A27, Gly-Gly-NMePhe-F(4amPEG2NH2)-Ahp-Trp-Gly-Tyr-Asp-D-Pro] (cyclo([Ahp(2)]WGYD[dP]GG[NMeF][Phe(4-CH2NH2)](AEEA)))	0.138 nM	0.045 nM	0.219 nM
CCCCC[C@@H]1NC(=O)[C@H](Cc2ccc(O)cc2)NC(=O)[C@H](Cc2ccccc2)N(C)C(=O)[C@@H](CO)NC(=O)CNC(=O)[C@H]2CCCN2C(=O)[C@H](CC(=O)O)NC(=O)[C@H](Cc2ccc(O)cc2)NC(=O)CNC(=O)[C@H](Cc2c[nH]c3ccccc23)NC1=O [Example A67, Gly-D-Ser-NMePhe-Tyr-Ahp-Trp-Gly-Tyr-Asp-D-Pro] (cyclo([Ahp(2)]WGYD[dP]G[dS][NMeF]Y))	252 nM	76 nM	208 nM
CCCCC[C@@H]1NC(=O)[C@H](Cc2ccc(O)cc2)NC(=O)[C@H](Cc2ccccc2)N(C)C(=O)CNC(=O)CNC(=O)[C@H]2CCCN2C(=O)[C@H](CCC(=O)O)NC(=O)[C@H](Cc2ccc(O)cc2)NC(=O)CNC(=O)[C@H](Cc2c[nH]c3ccccc23)NC1=O [Example A71, Gly-Gly-NMePhe-Tyr-Ahp-Trp-Gly-Tyr-Glu-D-Pro] (cyclo([Ahp(2)]WGYE[dP]GG[NMeF]Y))	0.61 nM	0.69 nM	0.242 nM
Gly-Gly-NMePhe-F(4OEtNHDOTA-Lu)-Ahp-Trp-Gly-K(COpipzaa)-Asp-D-Pro (cyclo(GG[NMeF][F(4OEtNHDOTA-Lu)][Ahp(2)]WG[K(COpipzaa)]D[dP]); also: Lu complex of DOTA) [Example C27]	0.072 nM	0.026 nM	0.102 nM

Reference: patent publication US20250090699A1, “FAP TARGETING CYCLIC PEPTIDES AND CONJUGATES THEREOF” (Novartis AG, priority 2023, published 2025)
